Assay results reported in US20140066438A1, “DOPAMINE RECEPTOR D2 ANTAGONIST FOR PREVENTION AND TREATMENT OF FLAVIVIRUS INFECTION” (Academia Sinica, priority 2012, published 2014).
Read-outs that look alike come from different tables or passages of the source.

How the values were obtained:
[1] = tested on: DENV-2; assay: Cell-based antiviral assay against DENV-2 (IFA, immunoblotting of NS3, plaque-forming assay); set-up: species or system Dengue virus serotype 2 (PL046 strain); conditions: for EC50: read-out: half-maximal effective concentration (EC50) against DENV-2 infection
Method: (A) PCZ cytotoxicity test. HEK293T cells were treated with solvent control or the indicated concentrations of PCZ for 24 h. AlamarBlue, XTT, and LDH assays were carried out to determine cell viability, cell proliferation, and cytotoxicity, respectively. Data are mean and standard deviation (SD) of 3 independent experiments. […] Representative immunofluorescence microscopy (400× magnification) of cells immunostained for DENV-2 NS3 (green) and DAPI for nuclei (blue). […] Plaque-forming assay of viral progeny production (plaque forming unit, PFU/ml) in culture supernatants of cells in panel C (D). Data are mean and SI) of 2 independent experiments. *P<0.05.
(A) PCZ cytotoxicity test. HEK293T cells were treated with solvent control or the indicated concentrations of PCZ (5, 10, 15, 20 and 25 μM). AlamarBlue, XTT and LDH assays were carried out to determine cell viability, cell proliferation, and cytotoxicity, respectively. […] (D) Plaque-forming assay of viral progeny production (plaque forming unit, PFU/ml): Data are mean and SD of two independent experiments. **P<0.01. […] BHK-21 cells (E) and N18 cells (F) infected with DENV-2 (MOI=0.1) were treated with or without PCZ for 2 days and 1 day, respectively.
HEK293T cells were infected with DENV-2 (MOI=0.1) with or without haloperidol for 1 day.
Monolayers of cells (HEK293T, BHK-21 and N18) in 6- or 12-well plates were infected with DENV-2 at the indicated multiplicity of infection (MOI). Virus was adsorbed for 2 h with the indicated concentrations of PCZ, then cells were washed thoroughly to remove unbound viruses and incubated for an additional 24 to 48 h with or without PCZ. The antiviral effect of PCZ was evaluated by immunofluorescence assay (IFA), immunoblotting and plaque-forming assay.
Cells were fixed with 4% PFA and permeabilized with 0.5% Triton X-100 in PBS.

[2] = tested on: DENV-1; assay: Antiviral assay against DENV-1 (NS3 Western blot); conditions: HEK293T, MOI=0.1, 2 days
[3] = tested on: DENV-2 NGC-N strain; assay: Animal study: DENV-2 challenge of Stat1-deficient mice; type: in vivo
Method: Stat1^−/− mice were challenged with 5×10^4 PFU/mouse of DENV-2 NGC-N strain. The protective effect of PCZ dimaleate (A) and PCZ dimethanesulfonate (Novamin Injection) (B) were tested with immediate and 6-h delay treatment. (A) The mice received phosphate buffered saline (PBS; vehicle control, n=10), 5 mg (n=8) or 1 mg (n=8) PCZ-dimaleate/kg body weight/i.p. at the time of infection (immediate treatment), or 5 mg PCZ-dimaleate/kg body weight/i.p. at 6 h post-infection (6-h delay treatment, n=8). Mice received follow-up treatment with PBS (vehicle control) or half the dose of PCZ-dimaleate orally every 12 h until day-10 post infection. […] The days with treatment are marked by arrows. Mice survival was checked daily and the data are presented as percentage of survival.
The mouse experiments were approved and performed in accordance with the guidelines of the Academia Sinica Institutional Animal Care and Utilization Committee. Groups of 5-week-old Stat1-deficient (SaT1^−/−) mice were challenged intraperitoneally (i.p.) with 5×10^4 plaque-forming units (PFU)/mouse of DENV-2 NGC-N strain and simultaneously injected with 30 μl PBS intracranially (i.c.) into the right hemisphere of the brain. To study the efficacy of PCZ-dimaleate administered mainly by an oral route, mice were divided into 4 groups for treatment: PBS (vehicle control); 5 or 1 mg of PCZ/kg body weight/i.p. at the time of infection (immediate treatment); or 5 mg of PCZ/kg body weight/i.p. at 6 h post-infection (6-h delay treatment). Thereafter, twice a day, mice received a half dose of the first treatment orally with PBS (vehicle control) or 2.5 or 0.5 mg of PCZ/kg body weight/oral/12 h up to day 10 post-infection. […] Thereafter, every 2 days, mice received PBS or the same dose of PCZ up to day 10 post-infection. The mice were checked daily for mortality.

[4] = molecular target: mouse dopamine D2 receptor (mouse) (UniProt P61168)
mouse dopamine D2 receptor (mouse), sequence (P61168 other isoform, or with tags, fused parts or gaps): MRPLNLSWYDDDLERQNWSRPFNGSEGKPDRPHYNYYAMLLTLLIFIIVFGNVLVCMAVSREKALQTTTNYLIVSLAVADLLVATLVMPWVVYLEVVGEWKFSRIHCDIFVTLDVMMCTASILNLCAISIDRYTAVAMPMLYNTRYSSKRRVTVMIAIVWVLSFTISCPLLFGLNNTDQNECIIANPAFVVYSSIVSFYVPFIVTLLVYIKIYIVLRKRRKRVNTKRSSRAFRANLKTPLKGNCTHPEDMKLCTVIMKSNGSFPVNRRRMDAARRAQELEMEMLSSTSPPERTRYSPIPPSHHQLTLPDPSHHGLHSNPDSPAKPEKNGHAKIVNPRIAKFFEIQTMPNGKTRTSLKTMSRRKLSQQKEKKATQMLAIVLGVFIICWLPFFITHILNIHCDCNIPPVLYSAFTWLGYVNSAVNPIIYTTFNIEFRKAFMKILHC

[5] = tested on: clathrin-dependent endocytosis; conditions: cited from earlier work
[6] = tested on: Japanese encephalitis virus (JEV); assay: Antiviral assay against JEV (NS3 Western blot); type: cell-based; conditions: BHK-21 cells, MOI=0.1, 2 days
[7] = tested on: DENV-2; assay: D2R dependence of PCZ inhibition of DENV-2 binding in N18, shLacZ-N18 and shD2R-N18 cells (NS3 Western blot); type: cell-based, Dengue virus serotype 2
Method: The lentivirus vector pLKO.1 carrying a short hairpin RNA (shRNA) targeting the mouse dopamine D2 receptor (5′-[…]-3′, SEQ ID NO: 1) or LacZ (5′-[…]-3′, SEQ ID NO: 2) from the Taiwan National RNAi Core Facility was cotransfected with pMD.G and pCMVΔR8.91 into HEK293T cells by use of Lipofectamine 2000 (INVITROGEN™). The lentiviruses were harvested from culture supernatants and concentrated by ultracentrifugation at 35,000 rpm in a Beckman SW41 rotor for 3.5 h at 4° C. The viral pellets were resuspended and used to transduce N18 cells. The D2R-deficient N18 cells (shD2R-N18) and LacZ-control cells (shLacZ-N18) were selected with puromycin (5 μg/ml).

[8] = tested on: clathrin; assay: Clathrin distribution during viral entry assay (confocal imaging); type: cell-based, human; conditions: HEK293 cells, PCZ 20 and 30 μM, compared to solvent-treated cells
Method: Cells were fixed with 4% PFA and permeabilized with 0.5% Triton X-100 in PBS. After a blocking with 5% skim milk in PBS, DENV protein expression was detected in cells incubated with mouse anti-DENV-2 NS3 antibody (49), then Alexa Fluor-488-conjugated anti-mouse secondary antibody (Molecular Probes) for 1 h at room temperature. The nuclei were stained with DAPI or Hoechst (Molecular Probes). Cells were examined under an inverted fluorescence microscope (Olympus 1X71). For confocal microcopy, cells were seeded on coverslips in 24-well culture plates. After virus absorption and treatment, cells were extensively washed with cold washing buffer and PBS, then fixed with cold 4% PFA. Cells were washed twice with cold 10 mM glycine solution, then PBS. For clathrin staining, cells were permeabilized with 0.5% Triton X-100 in PBS and blocked with 5% BSA in PBS. Cells were stained with mouse anti-clathrin heavy chain (X22) (Pierce, MA1-065), then anti-mouse Alexa Fluor-568-conjugated secondary antibody (Molecular Probes). The coverslip was mounted onto a slide and examined under confocal laser scanning microscope (ZEISS LSM 700).

[9] = tested on: DENV-2; assay: Virus entry assay (confocal microscopy, plaque-forming assay of internalized virus); type: cell-based, Dengue virus serotype 2
Method: Solvent control or PCZ (15 and 20 μM) was added 15 min before the end of virus adsorption. After a washing with PBS, cells were then shifted to 37° C. for an additional 1 h incubation. Live-cell staining was performed before cell fixation to label the cell membrane with CellMask (red) and nuclei with Hoechst (blue). […] (B) Plaque-forming assay of internalized DENV-2. […] After a washing with PBS, cells were shifted to 37° C. for an additional 1 h. Cells were physically destroyed to release the internalized DENV-2 and internalized virus was quantified by plaque-forming assays.
At 15 min before the end of virus adsorption, PCZ was added to the cell cultures. Cells were gently washed once with cold PBS, then were shifted to a 37° C. CO2 incubator for an additional 1 h to allow virus entry with or without PCZ. […] Cells were washed 3 times with cold washing buffer and once with cold PBS, then were fixed with 4% PFA for 10 min on ice. […] Level of virus titers was determined by plaque-forming assay.

[10] = tested on: HCV; conditions: cell-based screening; cited from earlier work
[11] = tested on: DENV-2 replicon; assay: DENV-2 replicon dual luciferase assay; type: cell-based, Dengue virus serotype 2; conditions: HEK293T, PCZ 10 μM applied 5 h post-transfection
Method: DENV-2 replicon was constructed to contain the SP6 promoter upstream of a Renilla luciferase gene flanked by the DENV 5′ UTR plus a portion of the core gene in the 5′ end; portions of the envelope gene, full length of non-structural genes and 3′ UTR in the 3′ end. In vitro transcription was performed to generate the replicon RNA. HEK293T cells were co-transfected with replicon RNA and control firefly luciferase RNA. PCZ (10 μM) was applied to the transfected cells at 5 h post-transfection. Cells were then harvested at the indicated times for dual luciferase assays. Data are mean and SD of relative renilla luciferase to firefly luciferase from two independent experiments.

[12] = mice, cited from earlier work
[13] = tested on: DENV-2; assay: Virus binding assay (confocal microscopy, plaque-forming assay of cell-bound virus)
[14] = 2 mg PCZ/kg body weight/2 days i.p., immediate treatment

Molecule: O=C(CCCN1CCC(O)(c2ccc(Cl)cc2)CC1)c1ccc(F)cc1 [haloperidol]
- antiviral activity against DENV-2 infection (NS3 Western blot) ([1]; HEK293T, MOI=0.1, 1 day): showed antiviral activity against DENV-2 infection

Molecule: prochlorperazine dimethanesulfonate [PCZ-Novamin]
- DENV-1 replication (NS3 Western blot) [2]: reduced DENV-1 replication
- DENV-2-induced lethality timing [3, 14]: slightly delayed
- overall survival [3, 14]: 20%
- protection against DENV-2 challenge after 10 days of infection ([3]; 4 mg PCZ/kg body weight/2 days i.p., immediate treatment): completely protected
- overall survival ([3]; 4 mg PCZ/kg/2 days i.p., immediate treatment): 40%
- overall survival and mortality timing ([3]; 4 mg kg body weight/2 days i.p., from 6 h post-infection): did not improve the overall survival but delayed the mortality
- mice surviving the DENV-2 challenge ([3]; 8 mg PCZ/kg body weight/2 days i.p., from 6 h post-infection): 40%
- protection against DENV-2 challenge after 10 days of infection ([3]; 8 mg PCZ/kg body weight/2 days i.p., immediate treatment): completely protected
- state of mice after treatment stopped at day 10 post-infection ([3]; 8 mg PCZ/kg/2 days i.p., immediate treatment): remained healthy
- protein expression of viral NS3 ([1]; DENV-2-infected HEK293T cells, IFA and Western blot): dose-dependently reduced
- EC50 ([1]; HEK293T cells, calculated by a published method): 88.4 nM
- viral progeny production by plaque-forming assay ([1]; HEK293T, DENV-2 MOI=1, 24 h): significantly reduced viral progeny production

Molecule: DENV-2 PL046 strain (dengue virus serotype 2), whole virion
- fold lower cell-bound virus on D2R-knockdown cells than on controls [4]: 6 times

Molecule: CN(C)CCCN1c2ccccc2Sc2ccc(Cl)cc21 [Chlorpromazine]
- clathrin-dependent endocytosis [5]: inhibits clathrin-dependent endocytosis

Molecule: CN1CCN(CCCN2c3ccccc3Sc3ccc(Cl)cc32)CC1 [PCZ-dimaleate, Prochlorperazine dimaleate]
- JEV infection (NS3 Western blot) [6]: inhibits Japanese encephalitis virus (JEV) infection
- animal mortality timing ([3]; 1 mg PCZ/kg body weight/day, immediate treatment): delayed animal mortality
- overall animal survival ([3]; 1 mg PCZ/kg body weight/day, immediate treatment, first i.p. then oral): 50%
- death timing ([3]; 5 mg PCZ/kg body weight, 6-h delay treatment): delayed death
- overall survival ([3]; 5 mg PCZ/kg body weight, 6-h delay treatment, 10 days): 50%
- protection against death ([3]; 5 mg/kg body weight/day, immediate treatment, first i.p. then oral, 10 days): completely protected against death
- antiviral effect against DENV-2 infection (NS3 Western blot) ([1]; BHK-21 cells, MOI=0.1, 2 days): shows antiviral effect against DENV-2 infection
- antiviral activity against DENV-2 infection ([1]; HEK293T, MOI=0.1, PCZ 5, 10 and 15 μM, 2 days): exhibits antiviral activity against DENV-2 infection
- antiviral effect against DENV-2 infection (NS3 Western blot) ([1]; N18 cells, MOI=0.1, 1 day): shows antiviral effect against DENV-2 infection

Molecule: CN1CCN(CCCN2c3ccccc3Sc3ccc(Cl)cc32)CC1 [PCZ, prochlorperazine]
- antiviral effect of PCZ given during binding (NS3) ([7]; N18 cells): noted
- antiviral effect of PCZ given during binding (NS3) ([7]; shD2R-N18 cells (D2R-deficient)): not
- antiviral effect of PCZ given during binding (NS3) ([7]; shLacZ-N18 cells (control knockdown)): noted
- cellular clathrin distribution [8]: showed a distinct clathrin distribution
- levels of DENV-2 internalization quantified by plaque forming assay ([9]; BHK-21 cells, MOI=5): significantly reduced
- amounts of DENV-2 in the intracellular compartment (confocal microscopy) ([9]; HEK293T, PCZ 15 and 20 μM, 1 h at 37° C.): greatly reduced
- anti-HCV activity [10]: showed anti-HCV activity
- protection of DENV-2 challenge mice ([3]; oral administration at 5 μg/gram body weight daily): completely protected
- relative renilla luciferase to firefly luciferase (DENV-2 translation and RNA replication) [11]: No significant difference
- LD50 ([12]; i.p. injection): 191 mg/kg body weight
- LD50 ([12]; oral route): 400 mg/kg body weight
- DENV-2 binding quantified by plaque forming assay ([13]; A549 cells, MOI=5): dose-dependently reduced
- levels of DENV-2 bound to the cell surface (confocal imaging) ([13]; HEK293T, PCZ 1 h before and during virus adsorption at 4° C.): reduced the levels of DENV-2 bound to the cell surface
- EC50 ([1]; Dengue virus, DENV2, HEK-293T): 88.4 nM
